Reference: ChEMBL document CHEMBL5365394, “Design, synthesis and biological evaluation of novel spiro-quinazolinone derivatives as chitin synthase inhibitors and antifungal agents” (Eur J Med Chem, 2023)
Values after ≈ are worked out from the molar mass of the structure shown. Each block holds one compound with its values, some of them ahead of it. Active and inactive are the calls of the source. The calls are words filed in the database; no cut-off is given here.

Columns and labels:
Aspergillus flavus [1] = test: Antifungal activity against Aspergillus flavus ATCC 16870 assessed as fungal growth inhibition incubated for 24 hrs by two-fold serial dilution method; format: functional
Cryptococcus neoformans [2] = test: Antifungal activity against Cryptococcus neoformans ATCC 32719 assessed as inhibition of cell wall synthesis incubated for 24 hrs in absence of sorbitol; format: functional
Aspergillus flavus [3] = test: Synergistic antifungal activity against Aspergillus flavus ATCC 16870 assessed as fluconazole MIC incubated for 24 hrs in by checkerboard broth microdilution method; format: functional
[4] = Cytotoxicity against human A549 cells assessed as cell viability at 8 ug/ml incubated for 24 hrs by CCK-8 assay relative to control; format: toxicity, cell-based; conditions: at 8 µg/mL, read-out: Activity
Aspergillus flavus [5] = test: Antifungal activity against Aspergillus flavus ATCC 16870 assessed as inhibition of cell wall synthesis incubated for 24 hrs in absence of sorbitol; format: functional
Candida tropicalis [6] = test: Inhibition of Candida tropicalis ATCC 750 chitin synthase using […] as substrate at 300 ug/ml incubated for 1 hr by absorbance based assay relative to control; conditions: dose 300.0 µg/ml
[7] = Cytotoxicity against human A549 cells assessed as cell viability at 64 ug/ml incubated for 24 hrs by CCK-8 assay relative to control; format: toxicity, cell-based; conditions: at 64 µg/mL, read-out: Activity
Candida tropicalis [8] = test: Non competitive inhibition of Candida tropicalis ATCC 750 chitin synthase using UDP-GlcNAc as substrate assessed as Km at 0.05 to 0.15 mM incubated for 1 hr by Michaelis-Menten analysis; conditions: dose 0.05-0.15 mM
Cryptococcus neoformans [9] = test: Antifungal activity against Cryptococcus neoformans ATCC 32719 assessed as inhibition of cell wall synthesis incubated for 24 hrs in presence of sorbitol; format: functional
Cryptococcus neoformans [10] = test: Antifungal activity against Cryptococcus neoformans ATCC 32719 assessed as fungal growth inhibition incubated for 24 hrs by two-fold serial dilution method; format: functional
Candida tropicalis [11] = test: Non competitive inhibition of Candida tropicalis ATCC 750 chitin synthase using UDP-GlcNAc as substrate assessed as decrease in Vmax with constant Km at 0.05 to 0.15 mM incubated for 1 hr by Michaelis-Menten analysis; conditions: dose 0.05-0.15 mM
Cryptococcus neoformans [12] = test: Synergistic antifungal activity against Cryptococcus neoformans ATCC 32719 assessed as fractional inhibitory concentration index incubated for 24 hrs in presence of fluconazole by checkerboard broth microdilution method; format: functional
Candida albicans [13] = test: Synergistic antifungal activity against Candida albicans ATCC 76615 assessed as fluconazole MIC incubated for 24 hrs in by checkerboard broth microdilution method; format: functional
Aspergillus flavus [14] = test: Antifungal activity against Fluconazole-resistant Aspergillus flavus ATCC 16870R assessed as fungal growth inhibition; format: functional
Cryptococcus neoformans [15] = test: Antifungal activity against Fluconazole-resistant Cryptococcus neoformans ATCC 32719R assessed as fungal growth inhibition; format: functional
[16] = Non competitive inhibition of Candida tropicalis ATCC 750 chitin synthase using UDP-GlcNAc as substrate assessed as inhibition constant incubated for 1 hr by double reciprocal plot analysis
Aspergillus fumigatus [17] = test: Antifungal activity against Aspergillus fumigatus GIMCC 3.19 assessed as fungal growth inhibition incubated for 24 hrs by two-fold serial dilution method; format: functional
Candida albicans [18] = test: Antifungal activity against Candida albicans ATCC 76615 assessed as inhibition of cell wall synthesis incubated for 24 hrs in presence of sorbitol; format: functional
Candida albicans [19] = test: Antifungal activity against Micafungin-resistant Candida albicans ATCC 76615R assessed as fungal growth inhibition; format: functional
[20] = Inhibition of Candida tropicalis ATCC 750 chitin synthase using UDP-GlcNAc as substrate incubated for 1 hr by absorbance based assay
Aspergillus fumigatus [21] = test: Synergistic antifungal activity against Aspergillus fumigatus GIMCC 3.19 assessed as fluconazole MIC incubated for 24 hrs in by checkerboard broth microdilution method; format: functional
Aspergillus fumigatus [22] = test: Synergistic antifungal activity against Aspergillus fumigatus GIMCC 3.19 assessed as fractional inhibitory concentration index incubated for 24 hrs in presence of polyoxin B by checkerboard broth microdilution method; format: functional
Candida albicans [23] = test: Antifungal activity against Candida albicans ATCC 76615 assessed as fungal growth inhibition incubated for 24 hrs by two-fold serial dilution method; format: functional
Aspergillus fumigatus [24] = test: Synergistic antifungal activity against Aspergillus fumigatus GIMCC 3.19 assessed as fractional inhibitory concentration index incubated for 24 hrs in presence of fluconazole by checkerboard broth microdilution method; format: functional
[25] = Cytotoxicity against human A549 cells assessed as cell viability at 4 ug/ml incubated for 24 hrs by CCK-8 assay relative to control; format: toxicity, cell-based; conditions: at 4 µg/mL, read-out: Activity
Aspergillus flavus [26] = test: Synergistic antifungal activity against Aspergillus flavus ATCC 16870 assessed as fractional inhibitory concentration index incubated for 24 hrs in presence of fluconazole by checkerboard broth microdilution method; format: functional
Candida albicans [27] = test: Synergistic antifungal activity against Candida albicans ATCC 76615 assessed as polyoxin B MIC incubated for 24 hrs by checkerboard broth microdilution method; format: functional
Aspergillus fumigatus [28] = test: Antifungal activity against Aspergillus fumigatus GIMCC 3.19 assessed as inhibition of cell wall synthesis incubated for 24 hrs in absence of sorbitol; format: functional
Aspergillus fumigatus [29] = test: Antifungal activity against Aspergillus fumigatus GIMCC 3.19 assessed as inhibition of cell wall synthesis incubated for 24 hrs in presence of sorbitol; format: functional
Candida albicans [30] = test: Antifungal activity against Candida albicans ATCC 76615 assessed as inhibition of cell wall synthesis incubated for 24 hrs in absence of sorbitol; format: functional
Aspergillus fumigatus [31] = test: Synergistic antifungal activity against Aspergillus fumigatus GIMCC 3.19 assessed as polyoxin B MIC incubated for 24 hrs by checkerboard broth microdilution method; format: functional
Candida albicans [32] = test: Synergistic antifungal activity against Candida albicans ATCC 76615 assessed as fractional inhibitory concentration index incubated for 24 hrs in presence of fluconazole by checkerboard broth microdilution method; format: functional
Aspergillus fumigatus [33] = test: Antifungal activity against Fluconazole-resistant Aspergillus fumigatus GIMCC 3.19R assessed as fungal growth inhibition; format: functional
Aspergillus flavus [34] = test: Antifungal activity against Aspergillus flavus ATCC 16870 assessed as inhibition of cell wall synthesis incubated for 24 hrs in presence of sorbitol; format: functional
Cryptococcus neoformans [35] = test: Synergistic antifungal activity against Cryptococcus neoformans ATCC 32719 assessed as fractional inhibitory concentration index incubated for 24 hrs in presence of polyoxin B by checkerboard broth microdilution method; format: functional
Cryptococcus neoformans [36] = test: Synergistic antifungal activity against Cryptococcus neoformans ATCC 32719 assessed as polyoxin B MIC incubated for 24 hrs in by checkerboard broth microdilution method; format: functional
Candida tropicalis [37] = test: Non competitive inhibition of Candida tropicalis ATCC 750 chitin synthase using UDP-GlcNAc as substrate assessed as Vmax at 0.05 to 0.15 mM incubated for 1 hr by Michaelis-Menten analysis; conditions: dose 0.05-0.15 mM
[38] = Cytotoxicity against human A549 cells assessed as cell viability at 16 ug/ml incubated for 24 hrs by CCK-8 assay relative to control; format: toxicity, cell-based; conditions: at 16 µg/mL, read-out: Activity
Candida albicans [39] = test: Antifungal activity against Fluconazole-resistant Candida albicans ATCC 76615R assessed as fungal growth inhibition; format: functional
Cryptococcus neoformans [40] = test: Synergistic antifungal activity against Cryptococcus neoformans ATCC 32719 assessed as fluconazole MIC incubated for 24 hrs in by checkerboard broth microdilution method; format: functional
Aspergillus flavus [41] = test: Synergistic antifungal activity against Aspergillus flavus ATCC 16870 assessed as polyoxin B MIC incubated for 24 hrs by checkerboard broth microdilution method; format: functional
A549 = test: Cytotoxicity against human A549 cells assessed as cell viability incubated for 24 hrs at 128 ug/ml by CCK-8 assay relative to control; conditions: dose 128 µg/ml
Candida albicans [42] = test: Synergistic antifungal activity against Candida albicans ATCC 76615 assessed as fractional inhibitory concentration index incubated for 24 hrs in presence of polyoxin B by checkerboard broth microdilution method; format: functional
[43] = Cytotoxicity against human A549 cells assessed as cell viability at 32 ug/ml incubated for 24 hrs by CCK-8 assay relative to control; format: toxicity, cell-based; conditions: at 32 µg/mL, read-out: Activity
Aspergillus flavus [44] = test: Synergistic antifungal activity against Aspergillus flavus ATCC 16870 assessed as fractional inhibitory concentration index incubated for 24 hrs in presence of polyoxin B by checkerboard broth microdilution method; format: functional
[45] = Inhibition of Saccharomyces cerevisiae CGMCC2.145 chitin synthase […] by TMB based microplate reader analysis

Structure (SMILES): O=C(/C=C/C(=O)Nc1ccc2c(c1)C(=O)NC1(CCSC1)N2)Nc1ccc([N+](=O)[O-])cc1 (stereo unspecified)
MIC (Aspergillus flavus [1]): 1 µg/mL (≈ 2.21 µM) | MIC (Cryptococcus neoformans [2]): 4 µg/mL (≈ 8.82 µM) | MIC (Aspergillus flavus [3]): 1 µg/mL | viability at 24 h, 8 ug/ml [4]: 94.3% | MIC (Aspergillus flavus [5]): 4 µg/mL (≈ 8.82 µM) | inhibition (Candida tropicalis [6]): 82.3% | viability at 24 h, 64 ug/ml [7]: 67.1% | Km (Candida tropicalis [8]): 5.18 mM | MIC (Cryptococcus neoformans [9]): 32 µg/mL | MIC (Cryptococcus neoformans [10]): 2 µg/mL (≈ 4.41 µM) | inhibition (Candida tropicalis [11]): Active | fractional inhibitory concentration index (FICI) (Cryptococcus neoformans [12]): 1 | MIC (Candida albicans [13]): 0.5 µg/mL | MIC (Aspergillus flavus [14]): 8 µg/mL (≈ 17.6 µM) | MIC (Cryptococcus neoformans [15]): 4 µg/mL (≈ 8.82 µM) | Ki [16]: 160 µM | MIC (Aspergillus fumigatus [17]): 2 µg/mL (≈ 4.41 µM) | MIC (Candida albicans [18]): 64 µg/mL | MIC (Candida albicans [19]): 8 µg/mL (≈ 17.6 µM) | IC50 [20]: 107 µM | MIC (Aspergillus fumigatus [21]): 4 µg/mL | fractional inhibitory concentration index (FICI) (Aspergillus fumigatus [22]): 1 | MIC (Candida albicans [23]): 1 µg/mL (≈ 2.21 µM) | fractional inhibitory concentration index (FICI) (Aspergillus fumigatus [24]): 0.75 | viability at 24 h, 4 ug/ml [25]: 95.1% | fractional inhibitory concentration index (FICI) (Aspergillus flavus [26]): 0.5 | MIC (Candida albicans [27]): 2 µg/mL | MIC (Aspergillus fumigatus [28]): 8 µg/mL (≈ 17.6 µM) | MIC (Aspergillus fumigatus [29]): 128 µg/mL | MIC (Candida albicans [30]): 4 µg/mL (≈ 8.82 µM) | MIC (Aspergillus fumigatus [31]): 8 µg/mL | fractional inhibitory concentration index (FICI) (Candida albicans [32]): 0.5 | MIC (Aspergillus fumigatus [33]): 8 µg/mL (≈ 17.6 µM) | MIC (Aspergillus flavus [34]): 64 µg/mL | fractional inhibitory concentration index (FICI) (Cryptococcus neoformans [35]): 0.75 | MIC (Cryptococcus neoformans [36]): 4 µg/mL | Vmax (Candida tropicalis [37]): 1.21 deltaOD/hr | viability at 24 h, 16 ug/ml [38]: 94% | MIC (Candida albicans [39]): 8 µg/mL (≈ 17.6 µM) | MIC (Cryptococcus neoformans [40]): 2 µg/mL | MIC (Aspergillus flavus [41]): 2 µg/mL | viability (A549): 62.2% | fractional inhibitory concentration index (FICI) (Candida albicans [42]): 0.75 | viability at 24 h, 32 ug/ml [43]: 87.8% | fractional inhibitory concentration index (FICI) (Aspergillus flavus [44]): 0.375

IC50 [45]: 100 µM
Structure (SMILES): O=C(Nc1cccc(C(F)(F)F)c1)C1CCN(CC(=O)N2CCC3(CCNC3=O)CC2)CC1
